The target in one test is T1, human mGluR5 (Homo sapiens, UniProt P41594).
T1 construct: expressed in transfected cells; host or cells: HEK cells, H10H cell line
Kind of test: Potentiation of glutamate response in HEK cells transfected with human mGluR5 (H10H cell line), Ca2+ fluorescence, FDSS. The class given is cell-based. The conditions noted are these: read-out: hmGluR5 EC50 (H10H cell line). The protocol: (§1) Human embryonic kidney (HEK) cells transfected with rat mGluR5 were plated in clear bottom assay plates for assay in a Functional Drug Screening System (FDSS). In the alternative assay, HEK cells transfected with human mGluR5 (H10H cell line) were plated for assay in the FDSS. […] The cells were loaded with a Ca^2+-sensitive fluorescent dye (e.g., Fluo-4), and the plates were washed and placed in the FDSS instrument. After establishment of a fluorescence baseline for twelve seconds, the compounds of the present invention were added to the cells, and the response in cells was measured. Five minutes later, an mGluR5 agonist (e.g., glutamate, 3,5-dihydroxyphenylglycine, or quisqualate) was added to the cells, and the response of the cells was measured. Potentiation of the agonist response of mGluR5 by the compounds in the present invention was observed as an increase in response to non-maximal concentrations of agonist (here, glutamate) in the presence of compound compared to the response to agonist in the absence of compound.
(§2) The above described assay operated in two modes. In the first mode, a range of concentrations of the present compounds were added to cells, followed by a single fixed concentration of agonist. If a compound acted as a potentiator, an EC50 value for potentiation and a maximum extent of potentiation by the compound at this concentration of agonist was determined by non-linear curve fitting. In the second mode, several fixed concentrations of the present compounds were added to various wells on a plate, followed by a range of concentrations of agonist for each concentration of present compound; the EC50 values for the agonist at each concentration of compound were determined by non-linear curve fitting. A decrease in the EC50 value of the agonist with increasing concentrations of the present compounds (a leftward shift of the agonist concentration-response curve) is an indication of the degree of mGluR5 potentiation at a given concentration of the present compound. An increase in the EC50 value of the agonist with increasing concentrations of the present compounds (a rightward shift of the agonist concentration-response curve) is an indication of the degree of mGluR5 antagonism at a given concentration of the present compound. The second mode also indicates whether the present compounds also affect the maximum response to mGluR5 to agonists.

The next test concerns the target T2, rat mGluR5 (Rattus norvegicus, UniProt P31424).
T2 construct: expressed in transfected cells; host or cells: HEK (human embryonic kidney) cells
Kind of test: Potentiation of glutamate response in HEK cells transfected with rat mGluR5 (Ca2+ fluorescence, FDSS). The class given is cell-based. The protocol: as §1, §2

The mark [1] stands for this setting: HEK cells transfected with rat mGluR5, read-out: rmGlu5 PAM EC50.

Read-outs that look alike come from different tables or passages of the source.

Here are results for 49 molecules from patent US8969389B2, “Substituted 6-methylnicotinamides as mGluR5 positive allosteric modulators” (Vanderbilt University, priority 2010, dated 2015).

T1 sequence (P41594 21-1212): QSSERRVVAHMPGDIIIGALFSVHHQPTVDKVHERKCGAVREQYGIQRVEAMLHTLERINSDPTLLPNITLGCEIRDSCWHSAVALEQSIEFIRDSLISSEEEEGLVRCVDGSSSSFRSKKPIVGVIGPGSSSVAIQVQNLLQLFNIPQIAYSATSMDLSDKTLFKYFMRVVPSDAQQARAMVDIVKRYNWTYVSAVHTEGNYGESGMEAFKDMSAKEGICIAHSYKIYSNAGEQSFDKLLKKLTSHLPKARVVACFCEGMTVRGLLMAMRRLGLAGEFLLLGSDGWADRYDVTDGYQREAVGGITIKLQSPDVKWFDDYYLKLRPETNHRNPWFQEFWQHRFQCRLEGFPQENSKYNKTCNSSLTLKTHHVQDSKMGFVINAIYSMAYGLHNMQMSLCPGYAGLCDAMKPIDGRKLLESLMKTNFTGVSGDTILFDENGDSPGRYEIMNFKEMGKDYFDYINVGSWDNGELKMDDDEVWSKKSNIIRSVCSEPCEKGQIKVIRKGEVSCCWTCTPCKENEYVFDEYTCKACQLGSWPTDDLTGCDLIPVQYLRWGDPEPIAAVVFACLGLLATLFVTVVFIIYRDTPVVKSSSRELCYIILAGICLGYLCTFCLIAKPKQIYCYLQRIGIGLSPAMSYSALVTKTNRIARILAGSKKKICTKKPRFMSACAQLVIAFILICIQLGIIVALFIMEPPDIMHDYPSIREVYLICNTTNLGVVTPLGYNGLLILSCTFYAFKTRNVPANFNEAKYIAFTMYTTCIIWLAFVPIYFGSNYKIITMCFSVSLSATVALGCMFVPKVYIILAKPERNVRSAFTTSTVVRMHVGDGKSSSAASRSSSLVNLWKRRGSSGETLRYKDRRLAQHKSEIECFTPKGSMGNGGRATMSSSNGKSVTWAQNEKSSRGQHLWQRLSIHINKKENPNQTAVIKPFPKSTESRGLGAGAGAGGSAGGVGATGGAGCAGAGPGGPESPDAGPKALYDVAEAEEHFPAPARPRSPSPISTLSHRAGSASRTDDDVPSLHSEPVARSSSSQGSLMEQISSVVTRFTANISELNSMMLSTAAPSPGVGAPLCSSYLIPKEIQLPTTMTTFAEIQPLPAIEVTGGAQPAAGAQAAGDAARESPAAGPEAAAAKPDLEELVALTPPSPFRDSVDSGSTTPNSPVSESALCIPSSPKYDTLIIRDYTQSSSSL
T2 sequence (P31424 21-1203): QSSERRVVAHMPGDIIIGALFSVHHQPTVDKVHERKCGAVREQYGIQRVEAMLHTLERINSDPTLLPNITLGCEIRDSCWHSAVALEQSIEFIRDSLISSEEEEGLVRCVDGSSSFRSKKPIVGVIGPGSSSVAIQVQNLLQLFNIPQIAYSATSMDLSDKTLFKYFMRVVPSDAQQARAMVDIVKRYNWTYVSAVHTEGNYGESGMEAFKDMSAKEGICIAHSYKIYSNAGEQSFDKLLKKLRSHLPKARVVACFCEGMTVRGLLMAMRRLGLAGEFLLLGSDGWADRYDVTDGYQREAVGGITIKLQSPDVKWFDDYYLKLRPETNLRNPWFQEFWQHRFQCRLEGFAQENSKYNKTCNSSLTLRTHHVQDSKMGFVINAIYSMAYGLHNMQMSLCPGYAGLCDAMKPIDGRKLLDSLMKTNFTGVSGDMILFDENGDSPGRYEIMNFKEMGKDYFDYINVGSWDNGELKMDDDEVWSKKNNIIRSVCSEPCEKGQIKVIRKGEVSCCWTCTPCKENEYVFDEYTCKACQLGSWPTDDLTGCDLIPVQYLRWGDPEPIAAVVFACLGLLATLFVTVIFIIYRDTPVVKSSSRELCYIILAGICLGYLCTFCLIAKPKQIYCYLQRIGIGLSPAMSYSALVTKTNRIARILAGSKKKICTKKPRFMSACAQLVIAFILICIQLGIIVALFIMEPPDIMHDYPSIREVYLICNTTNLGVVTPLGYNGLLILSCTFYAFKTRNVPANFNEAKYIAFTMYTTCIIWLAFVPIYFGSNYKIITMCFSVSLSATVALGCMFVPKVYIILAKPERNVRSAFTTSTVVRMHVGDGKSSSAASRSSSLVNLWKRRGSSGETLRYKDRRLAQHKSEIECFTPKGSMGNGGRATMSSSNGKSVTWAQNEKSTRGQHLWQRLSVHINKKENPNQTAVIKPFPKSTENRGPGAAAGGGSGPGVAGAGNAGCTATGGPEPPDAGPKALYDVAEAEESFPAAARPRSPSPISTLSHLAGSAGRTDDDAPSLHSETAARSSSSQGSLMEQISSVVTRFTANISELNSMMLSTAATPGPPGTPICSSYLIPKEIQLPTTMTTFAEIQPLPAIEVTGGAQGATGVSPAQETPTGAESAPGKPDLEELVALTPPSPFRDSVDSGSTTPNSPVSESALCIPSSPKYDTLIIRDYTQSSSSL

Usually EC50 stands for the concentration needed to bring the measured effect to its halfway point. As to `Cc1cc(OCc2ccc(C(=O)N[C@H](C)C(C)(C)C)cn2)ccn1`, the EC50 at human mGluR5 was > 10 µM. For `C[C@@H](NC(=O)c1ccc(COc2cncc(C(F)(F)F)c2)nc1)C1CCCCC1`, the EC50 on human mGluR5 is > 10 µM. For `C[C@@H](N(C)C(=O)c1ccc(COc2cccc(F)c2)nc1)C(C)(C)C`, the EC50 on human mGluR5 was > 10 µM. Turning to `CC(NC(=O)c1ccc(COc2cccc(F)c2)nc1)c1nccs1` (centres unmarked), the EC50 at human mGluR5 was > 10 µM. Consider `CC1(CNC(=O)c2ccc(COc3cccc(F)c3)nc2)COC1`, for which the EC50 at human mGluR5 is > 10 µM.

For `O=C(NC1(c2ccccn2)CC1)c1ccc(COc2cccc(F)c2)nc1`, on human mGluR5, the EC50 is > 10 µM. The same measure, in the same setting: then `C[C@@H](NC(=O)c1ccc(COc2cncc(F)c2)nc1)C(C)(C)C`, with > 10 µM; and `C[C@@H](NC(=O)c1ccc(COc2cncc(C(F)(F)F)c2)nc1)C(C)(C)C`, with > 10 µM; and `O=C(N[C@H]1C[C@@H]2CC[C@H]1C2)c1ccc(COc2cccc(F)c2)nc1`, with 0.55 µM.

For the molecule `O=C(NC1CC(O)(C(F)(F)F)C1)c1ccc(COc2cccc(F)c2)nc1` (centres unmarked) [drawing 173], the EC50 on human mGluR5 is > 10 µM. On the same count and under the same terms, the figure for `C[C@@H](NC(=O)c1ccc(COc2cncnc2)nc1)C(C)(C)C` is > 10 µM. Still for that read-out and setting: the figure for `CC1(O)CC(NC(=O)c2ccc(COc3cccc(F)c3)nc2)C1` (centres unmarked) is > 10 µM; for `C[C@@H](NC(=O)c1ccc(COc2cncc(F)c2)nc1)C1CCCCC1` it is 2.7 µM; for `CC(NC(=O)c1ccc(COc2cccc(F)c2)nc1)C1CCCOC1` (centres unmarked) it is 0.44 µM.

For `C[C@H](NC(=O)c1ccc(COc2cccc(F)c2)nc1)C(C)(C)C` [drawing 189], the EC50 at human mGluR5 is > 10 µM. On the same count and under the same terms, then `C[C@@H](NC(=O)c1ccc(COc2ccnc(Cl)c2)nc1)C1CCCCC1`, with 1.5 µM; and `O=C(NC(c1ccc(F)cc1)C(F)(F)F)c1ccc(COc2cccc(F)c2)nc1` (centres unmarked), with > 10 µM. `Cc1cc(OCc2ccc(C(=O)N[C@H](C)C3CCCCC3)cn2)ccn1`: on human mGluR5, the EC50 is > 10 µM. On the same count and under the same terms, the figure for `O=C(NC(c1ccccn1)C(F)(F)F)c1ccc(COc2cccc(F)c2)nc1` (centres unmarked) is > 10 µM; for `O=C(N[C@@H]1C[C@@H]2CC[C@H]1C2)c1ccc(COc2cccc(F)c2)nc1` it is > 10 µM. Still for that read-out and setting: the figure for `CC(NC(=O)c1ccc(COc2cccc(F)c2)nc1)C1CCCCO1` (centres unmarked) is 1.9 µM. On the same count and under the same terms, the figure for `O=C(N[C@H]1C[C@H]2CC[C@@H]1C2)c1ccc(COc2cccc(F)c2)nc1` is 0.73 µM; for `CC(NC(=O)c1ccc(COc2cccc(F)c2)nc1)C(C)(C)O` (centres unmarked) it is > 10 µM. `O=C(Nc1ccc(F)cc1)c1ccc(COc2ccccc2)nc1`: the EC50 at rat mGluR5 (setting [1]) was > 10 µM. The same measure, in the same setting: the figure for `O=C(NCCCN1CCOCC1)c1ccc(COc2ccccc2)nc1` is > 10 µM. The same measure, in the same setting: then `C[C@@H](NC(=O)c1ccc(COc2ccc(C#N)cc2)nc1)C1CCCCC1`, with 2.5 µM; and `C[C@@H](NC(=O)c1ccc(COc2ccccn2)nc1)C1CCCCC1`, with > 10 µM. Same read-out and setting: then `O=C(Nc1ccccc1F)c1ccc(COc2ccccc2)nc1`, with 0.501 µM; and `O=C(NC1(c2ccccc2)CCC1)c1ccc(COc2ccccc2)nc1`, with > 10 µM.

`O=C(Nc1nccs1)c1ccc(COc2cc(F)cc(F)c2)nc1`: on rat mGluR5 (setting [1]), the EC50 was > 10 µM.

As for `C[C@@H](NC(=O)c1ccc(COc2ccnc(Cl)c2)nc1)C(C)(C)C`, at human mGluR5, the EC50 turned out to be 2.3 µM. Regarding `O=C(N[C@H](C1CC1)C(F)(F)F)c1ccc(COc2cccc(F)c2)nc1`, the EC50 at rat mGluR5 (setting [1]) is > 10 µM. Regarding `C[C@@H](NC(=O)c1ccc(COc2cncc(Cl)c2)nc1)C1CCCCC1`, the EC50 on human mGluR5 was > 10 µM. Take `O=C(NC1CCc2ccccc21)c1ccc(COc2ccccc2)nc1` (centres unmarked) [drawing 113]: the EC50 at rat mGluR5 (setting [1]) was > 10 µM. With `CC1(CCNC(=O)c2ccc(COc3cccc(F)c3)nc2)COC1`, the half-maximal effective concentration (EC50) on human mGluR5 was > 10 µM. Consider `C[C@H](NC(=O)c1ccc(COc2cccc(F)c2)nc1)C1CCCCC1` [Example 11b, (S)-N-(1-cyclohexylethyl)-6-((3-fluorophenoxy)methyl)nicotinamide], for which the EC50 at rat mGluR5 ((R) and (S) enantiomers, Tables 3A/3B, read-out: mGluR5 EC50) is > 10 µM; on rat mGluR5 (S configuration enantiomer, read-out: mGluR5 potentiator EC50), > 10 µM. Consider `COCCCNC(=O)c1ccc(COc2ccccc2)nc1`, for which, on rat mGluR5 (setting [1]), the concentration giving a half-maximal response (EC50) is > 10 µM. For the molecule `C[C@@H](NC(=O)c1ccc(COc2cccc(F)c2)nc1)C1CCOCC1`, the half-maximal effective concentration (EC50) at rat mGluR5 (setting [1]) was found to be 3.24 µM. On the same count and under the same terms, the figure for `N#Cc1cc(F)cc(OCc2ccc(C(=O)NC3CCC3)cn2)c1` is > 10 µM; for `C[C@H](NC(=O)c1ccc(COc2ccccc2)nc1)C1CCCCC1` it is 2.88 µM. As to `O=C(NC1CC(O)(C(F)(F)F)C1)c1ccc(COc2cccc(F)c2)nc1` (centres unmarked) [drawing 172], on human mGluR5, the EC50 is > 10 µM.

Consider `CC(NC(=O)c1ccc(COc2cccc(F)c2)nc1)C(F)(F)F` (centres unmarked), for which, at human mGluR5, the EC50 was determined as 3.2 µM. Regarding `O=C(Nc1cccc(F)c1F)c1ccc(COc2ccccc2)nc1`, on rat mGluR5 (setting [1]), the EC50 is > 10 µM. For the molecule `O=C(NC1CCCCC1)c1ccc(COc2cc(F)cc(F)c2)nc1`, the EC50 at rat mGluR5 (setting [1]) was > 10 µM. Turning to `C[C@H](NC(=O)c1ccc(COc2cc(F)cc(F)c2)nc1)C1CCCCC1` [drawing 149], the EC50 on rat mGluR5 (setting [1]) is > 10 µM. For the molecule `O=C(NCC1CC1)c1ccc(COc2ccccc2)nc1`, the EC50 at rat mGluR5 (setting [1]) is > 10 µM. The same measure, in the same setting: the figure for `C[C@@H](NC(=O)c1ccc(COc2ccccc2C#N)nc1)C1CCCCC1` is > 10 µM.

For `C[C@@H](NC(=O)c1ccc(COc2cncc(Cl)c2)nc1)C(C)(C)C`, the 50% effective concentration (EC50) on human mGluR5 is > 10 µM. The same measure, in the same setting: the figure for `O=C(N[C@@H]1C[C@H]2CC[C@@H]1C2)c1ccc(COc2cccc(F)c2)nc1` is 0.17 µM.
